The results in this text go back to ChEMBL document CHEMBL4052711, “Synthesis of 4- and 5-arylthiazolinethiones as inhibitors of indoleamine 2,3-dioxygenase” (Bioorg Med Chem Lett, 2017).

The target in assay [1] is T1, Indoleamine 2,3-dioxygenase 1 (Homo sapiens, UniProt P14902). In words: Inhibition of human IDO1 at 100 uM pre-incubated for 10 mins before L-Trp as substrate addition and measured after 30 mins by colorimetry.
Target sequence in this assay (P14902 whole entry, looked up): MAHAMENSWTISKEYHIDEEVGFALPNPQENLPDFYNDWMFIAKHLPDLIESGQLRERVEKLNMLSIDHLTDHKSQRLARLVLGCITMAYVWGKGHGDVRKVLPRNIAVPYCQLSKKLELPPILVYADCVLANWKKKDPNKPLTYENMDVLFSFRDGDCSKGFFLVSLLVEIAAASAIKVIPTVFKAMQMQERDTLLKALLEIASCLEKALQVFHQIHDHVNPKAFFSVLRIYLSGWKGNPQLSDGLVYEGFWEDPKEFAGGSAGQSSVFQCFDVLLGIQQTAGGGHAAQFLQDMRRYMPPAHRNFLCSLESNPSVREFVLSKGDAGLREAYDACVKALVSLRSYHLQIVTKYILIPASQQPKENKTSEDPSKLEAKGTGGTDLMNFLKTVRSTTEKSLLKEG
For assay [2], the target named is T1, Indoleamine 2,3-dioxygenase 1. Briefly: Inhibition of human IDO1 pre-incubated for 10 mins before L-Trp as substrate addition and measured after 30 mins by colorimetry.
Target sequence in this assay (P14902 whole entry): as the sequence (P14902 whole entry, looked up) above
For assay [3] the target is unchanged. In words: Inhibition of human IDO1 at 10 uM pre-incubated for 10 mins before L-Trp as substrate addition and measured after 30 mins by colorimetry.
Target sequence in this assay (P14902 whole entry, looked up): as above

A word on the inhibition: it is the drop in the measured response relative to a control, in per cent. Higher therefore signals strong suppression. As for `S=c1[nH]c(-c2cccc(Cl)c2)cs1`, the inhibition in assay [1] is 40%.

For the molecule `COc1ccccc1-c1c[nH]c(=S)s1`, the inhibition in assay [1] stood at 12%.

The molecule `S=c1[nH]cc(-c2ccccc2)s1` showed an inhibition in assay [1] of 16%.

`Nc1nc(-c2ccccc2)cs1` had an inhibition in assay [1] of 13%.

Turning to `Cc1ccc(-c2csc(S)n2)cc1`, the inhibition in assay [1] was 90%; in assay [3], 39%. Besides, in assay [2] (read-out: IC50), the IC50 is 5.9 µM.

Take `FC(F)(F)c1ccc(-c2csc(=S)[nH]2)cc1`: the inhibition in assay [1] turned out to be 37%.

In the case of `Fc1ccccc1-c1csc(=S)[nH]1`, in assay [1], the inhibition was determined as 77%.

Regarding `N#Cc1ccc(-c2csc(=S)[nH]2)cc1`, the inhibition in assay [1] came out at 8%.

In the case of `Fc1ccc(-c2csc(S)n2)cc1`, the inhibition in assay [1] worked out at 72%.

For `Fc1cccc(-c2csc(=S)[nH]2)c1`, the inhibition in assay [1] was 28%.

With `Fc1ccccc1-c1c[nH]c(=S)s1`, the inhibition in assay [1] was 29%.

Turning to `S=c1[nH]c(-c2cccnc2)cs1`, the inhibition in assay [1] turned out to be 48%.

In the case of `O=C(O)c1ccccc1-c1csc(=S)[nH]1`, the inhibition in assay [1] came to 8%.

`Sc1nc(-c2ccccc2)cs1`: the inhibition in assay [1] came to 76%; in assay [3], 35%.

For the molecule `Sc1nc(-c2ccc(Cl)cc2)cs1`, the inhibition in assay [1] worked out at 95%; in assay [3] it was 79%. The figures for the IC50 in assay [2] (read-out: IC50) and in assay [2] (read-out: pIC50 (converted)) were 2.6 µM and 2.86 µM, respectively.

On to `S=c1[nH]c(-c2ccc(Br)cc2)cs1`, for which the inhibition came out at 100% in assay [1] and 88% in assay [3]. Further, the IC50 in assay [2] (read-out: IC50) was found to be 3.4 µM.

In turn, `Oc1nc(-c2ccccc2)cs1` displayed an inhibition in assay [1] of 15%.

In turn, `COc1ccc(-c2c[nH]c(=S)s2)cc1` returned an inhibition in assay [1] of 0%.

Molecule `Brc1nc(-c2ccccc2)cs1` came in with an inhibition in assay [1] of 12%.

In assay [1], `S=c1[nH]c(-c2cccc(Br)c2)cs1` had an inhibition of 81%.

`S=c1[nH]c(-c2ccncc2)cs1` gave an inhibition in assay [1] of 21%.

`COc1ccc(-c2csc(=S)[nH]2)cc1` yielded an inhibition in assay [1] of 68%.

In assay [1], `OCc1cccc(-c2csc(=S)[nH]2)c1` displayed an inhibition of 16%.

Regarding `COc1ccccc1-c1csc(=S)[nH]1`, the inhibition in assay [1] was found to be 53%.

`Cc1ccc(-c2c[nH]c(=S)s2)cc1` came in with an inhibition in assay [1] of 15%.

Regarding `Clc1nc(-c2ccccc2)cs1`, the inhibition in assay [1] was found to be 0.5%.

`S=c1[nH]cc(-c2cccc(Br)c2)s1`: the inhibition in assay [1] is 48%.
